Reference: patent publication US20150126581A1, “MicroRNAs and Uses Thereof” (The University of Western Australia, priority 2012, published 2015)

Tests used:
Type in all cases: cell-based, human
DOHH 3′-UTR = experiment: Dual luciferase reporter gene assay in HeLa cells, DOHH 3′-UTR reporter; settings: 1-2 nM pre-miRNA, 24 h after transfection, compared to miR-NC
Source text: Synthetic miRNA precursor molecules corresponding to human miR-331-3p (Pre-miR miRNA Precursor Product ID: PM10881), human miR-642-5p (Pre-miR miRNA Precursor Product ID: PM11477) and a negative control miRNA (miR-NC; Pre-miR miRNA Precursor Negative Control #1, Product ID: AM 17110) were obtained from Ambion.
The dual luciferase (firefly and Renilla) reporter miRNA target clone for the DOHH 3′-UTR (catalogue no. HmiT020194-MT01) and the negative control vector (catalogue no. CmiT000001-MT01), both based on the PETZ-MT01 vector containing a SV40 promoter upstream of the hLuc gene, and a CMV reporter upstream of the hRLuc gene, were sourced from Genecopoeia™ (Rockville, USA). […]
HeLa cells were seeded in 12-well plates and co-transfected using Lipofectamine 2000 (Invitrogen) with 100 ng of either the negative control (empty), DOHH 3′-UTR or ERBB-2 3′-UTR reporter construct (Genecopoeia™) and 1-2 nM final concentration of pre-miR-331-3p, pre-miR-642-5p, a combination of pre-miR-331-3p and pre-miR-642-5p, or pre-miR-NC per well. Lysates were assayed for Firefly and Renilla luciferase activities 24 h after transfection using the Dual Luciferase Reporter Assay System (Promega) and a Fluostar OPTIMA microplate reader (BMG Labtech), and firefly luciferase activities normalised to Renilla luciferase activities to obtain relative reporter gene activity.

HeLa cells = experiment: xCELLigence cell proliferation assay; settings: 5000 transfected cells, monitored over 90 hour period, compared to miRNA negative control
Protocol: The effect of transient miRNA over-expression in HeLa cells on cell proliferation was investigated using the xCELLigence™ System (Roche). Briefly, HeLa cells were grown and transfected with the miRNA negative control, hsa-miR-331-3p and/or hsa-miR-642-5p precursors as described above. Transfected HeLa cells were then trypsinised and counted using the Countess™ Automated cell counter and 5000 transiently transfected HeLa cells were plated in quadruplicate into 16 well E-plates. The cells monitored over a 90 hour period in real time according to the manufacturer's instructions.

[1] = test system: 182 nucleotide element of the DOHH 3′-UTR; experiment: Reporter gene assay in HeLa cells with 3′UTR, 3′UTR ELEMENT and 3′UTR MINUS ELEMENT constructs; settings: for Reporter gene expression from “3′UTR MINUS ELEMENT” construct: 182 nucleotide element deleted; for Firefly luciferase expression from “3′UTR” and “3′UTR ELEMENT” constructs: versus NC
Protocol: To confirm that the regions in the 3′UTR of DOHH that were predicted to be targeted by hsa-miR-331-3p and hsa-miR-642-5p (see Example 1 and FIG. 1) were indeed targeted, reporter constructs with and without a 182 nucleotide element containing the predicted targeted regions were generated and used in reporter gene assays.
(§1) Briefly, three reporter gene constructs were prepared using a pmiR-REPORT vector (Ambion) as the backbone. The first construct was the construct described in Example 2, containing the DOHH 3′-UTR downstream of the firefly luciferase reporter gene (labelled “3′UTR”). The second construct contained a DOHH 3′-UTR in which the 182 base pair element had been deleted, downstream of the firefly luciferase reporter gene (labelled “3′UTR MINUS ELEMENT”). The third construct contained the 182 nucleotide element downstream of the firefly luciferase reporter gene (labelled “3′UTR ELEMENT”) (FIG. 6A).
In the first assay, performed essentially as described in Example 2 by transfection of HeLa cells, the firefly luciferase expression from the “3′UTR” and “3′UTR ELEMENT” constructs was assessed in the presence of hsa-miR-331-3p, hsa-miR-642-5p, a combination of the two or vehicle only (NC).
In the second assay performed by transfecting HeLa cells, the expression of the reporter gene from the “3′UTR MINUS ELEMENT” construct was assessed in the presence of hsa-miR-331-3p and/or hsa-miR-642-5p.

[2] = test system: 182 nucleotide element of the DOHH 3′-UTR; experiment: Reporter gene assay in LNCaP and C4-2B prostate cancer cells with 3′UTR, 3′UTR ELEMENT and 3′UTR MINUS ELEMENT constructs; settings: for Down-regulation of reporter activity from “3′UTR MINUS ELEMENT” construct: LNCaP and C4-2B cells, 182 nucleotide element deleted; for Reporter activity from “3′UTR” and “3′UTR ELEMENT” constructs: both LNCaP and C4-2B cells, relative to miR-NC
Protocol: as §1
The effect of hsa-miR-331-3p and/or hsa-miR-642-5p on expression from the “3′UTR”, “3′UTR ELEMENT” and “3′UTR MINUS ELEMENT” construct in LNCaP and C4-2B prostate cancer cells was then assessed using the same transfection and assay techniques.

DOHH mRNA = experiment: qRT-PCR of endogenous DOHH mRNA in transfected DU145 cells; settings: 24 h after transfection, versus miR-NC
Protocol: (§2) The effect of hsa-miR-331-3p and/or hsa-miR-642-5p on endogenous DOHH expression in DU145 prostate cancer cells was assessed by co-transfecting the cells with pre-miR-331-3p, pre-miR-642-5p, or pre-miR-NC essentially as described in Examples 2 and 3, and DOHH mRNA levels were assessed by qRT-PCR of DOHH mRNA. Parallel Western blotting experiments were performed to assess DOHH protein levels, as also described above.

DOHH protein = experiment: Western blot of DOHH protein in transfected DU145 cells; settings: 48 h after transfection
Protocol: as §2

[3] = test system: DOHH 3′-UTR 182 nucleotide element; experiment: Luciferase RNA level from 3′UTR ELEMENT construct in DU145 cells; settings: co-transfection, data not shown
Source text: DU145 cells were also co-transfected with the “3′UTR ELEMENT” construct (i.e. the luciferase reporter carrying the DOHH 3′-UTR 182 nucleotide element) and hsa-miR-331-3p and/or hsa-miR-642-5p.

DU145 cells = experiment: CellTiter 96 Aqueous One cell proliferation assay in DU145 cells with or without mimosine; settings: 5 days post transfection, compared with miR-NC, no mimosine
Source text: The functional significance of hsa-miR-331-3p and/or hsa-miR-642-5p overexpression in DU145 cells was then investigated. DU145 cells were transfected with pre-miR-331-3p, pre-miR-642-5p, or pre-miR-NC as described above. […] Using the Bliss model (Bliss (1939) Ann Appl. Biol 26:585-615), synergy occurs when the observed fractional inhibition for the combination of hsa-miR-331-3p and/or hsa-miR-642-5p and mimosine (defined as Eobserved) exceeds the sum of the combined miRNA effect and the mimosine effect (defined as EBliss) (Table 3).

| Substance | DOHH 3′-UTR reporter activity (firefly normalised to Renilla luciferase) (DOHH 3′-UTR) | HeLa cell proliferation (xCELLigence) (HeLa cells) | Reporter gene expression from “3′UTR MINUS ELEMENT” construct [1] | Firefly luciferase expression from “3′UTR” and “3′UTR ELEMENT” constructs [1] | Down-regulation of reporter activity from “3′UTR MINUS ELEMENT” construct [2] | Reporter activity from “3′UTR” and “3′UTR ELEMENT” constructs [2] | Endogenous DOHH mRNA expression (DOHH mRNA) | DOHH protein expression (Western blot) (DOHH protein) | Luciferase RNA levels from “3′UTR ELEMENT” construct [3] | DU145 cell proliferation (DU145 cells) |
| --- | --- | --- | --- | --- | --- | --- | --- | --- | --- | --- |
| hsa-miR-331-3p: human miR-331-3p, 5′-GCCCCUGGGCCUAUCCUAGAA-3′ (SEQ ID NO:4); transfected as Ambion Pre-miR precursor PM10881 (listed as RNA, chemistry not given here; listed as Homo sapiens) | significant reduction in reporter activity | inhibit the proliferation of HeLa cells to similar degrees | no repression of the reporter gene | repression of firefly luciferase expression | not observed | significantly down-regulated reporter activity | significantly reduced expression of endogenous DOHH mRNA | inhibited expression of DOHH protein | Reduced luciferase RNA levels | significantly reduced DU145 cell proliferation |
| hsa-miR-642-5p: human miR-642-5p, 5′-GUCCCUCUCCAAAUGUGUCUUG-3′ (SEQ ID NO:5); transfected as Ambion Pre-miR precursor PM11477 (listed as RNA, chemistry not given here; listed as Homo sapiens) | increased effect on the DOHH 3′UTR compared to the effect of hsa-miR-331-3p | inhibit the proliferation of HeLa cells to similar degrees | no repression of the reporter gene | repression of firefly luciferase expression | not observed | significantly down-regulated reporter activity | significantly reduced expression of endogenous DOHH mRNA | inhibited expression of DOHH protein | Reduced luciferase RNA levels | significantly reduced DU145 cell proliferation |
